Where “and” joins values, the source holds several entries; their conditions need not be identical. Identical values can stand only once.
Tested on: 168753-222-R-J1-PDC complex spheroid viability
Test: Anticancer human tumor 168753-222-R-J1-PDC patient-derived bladder carcinoma cell line growth inhibition [CLK]
Conditions: for viability, T/C: stronger effect = lower value
How it was run: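 Multi-cell-type spheroids combined patient-derived tumor cells with HUVEC endothelial cells and human mesenchymal stem cells. Paired agents were dosed in half-log steps down from about clinical Cmax, or from 10 microM where Cmax was unknown.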

[1] = curve of first compound, second compound 0.0316 µM
[2] = curve of first compound, second compound 0.1 µM
[3] = curve of first compound, second compound 0.316 µM
[4] = curve of first compound, second compound 1 µM
[5] = curve of first compound, second compound 3.16 µM
[6] = curve of first compound, second compound 10 µM
[7] = second compound 0.0316 µM, first compound 0.0316 µM
[8] = second compound 0.0316 µM, first compound 0.1 µM
[9] = second compound 0.0316 µM, first compound 0.316 µM
[10] = second compound 0.0316 µM, first compound 1 µM
[11] = second compound 0.0316 µM, first compound 3.16 µM
[12] = second compound 0.0316 µM, first compound 10 µM
[13] = second compound 0.1 µM, first compound 0.0316 µM
[14] = second compound 0.1 µM, first compound 0.1 µM
[15] = second compound 0.1 µM, first compound 0.316 µM
[16] = second compound 0.1 µM, first compound 1 µM
[17] = second compound 0.1 µM, first compound 3.16 µM
[18] = second compound 0.1 µM, first compound 10 µM
[19] = second compound 0.316 µM, first compound 0.0316 µM
[20] = second compound 0.316 µM, first compound 0.1 µM
[21] = second compound 0.316 µM, first compound 0.316 µM
[22] = second compound 0.316 µM, first compound 1 µM
[23] = second compound 0.316 µM, first compound 3.16 µM
[24] = second compound 0.316 µM, first compound 10 µM
[25] = second compound 1 µM, first compound 0.0316 µM
[26] = second compound 1 µM, first compound 0.1 µM
[27] = second compound 1 µM, first compound 0.316 µM
[28] = second compound 1 µM, first compound 1 µM
[29] = second compound 1 µM, first compound 3.16 µM
[30] = second compound 1 µM, first compound 10 µM
[31] = second compound 3.16 µM, first compound 0.0316 µM
[32] = second compound 3.16 µM, first compound 0.1 µM
[33] = second compound 3.16 µM, first compound 0.316 µM
[34] = second compound 3.16 µM, first compound 1 µM
[35] = second compound 3.16 µM, first compound 3.16 µM
[36] = second compound 3.16 µM, first compound 10 µM
[37] = second compound 10 µM, first compound 0.0316 µM
[38] = second compound 10 µM, first compound 0.1 µM
[39] = second compound 10 µM, first compound 0.316 µM
[40] = second compound 10 µM, first compound 1 µM
[41] = second compound 10 µM, first compound 3.16 µM
[42] = second compound 10 µM, first compound 10 µM
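Also: viability measured after seven days of drug exposure.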
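For viability, T/C in this document: luminescence signal used as surrogate for viable cell amount; 100% = DMSO vehicle control wells.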

With O=c1[nH]cc(F)c(=O)[nH]1 + CNC(=O)c1ccc(Nc2nc(OC3CCCC3)c3c(-c4ccc5nc(C)oc5c4)c[nH]c3n2)c(OC)c1 the IC50 [1] was > 10000 nM, the IC50 [2] was > 10000 nM and the IC50 [3] was > 10000 nM. For the same compound, the IC50 [4] was < 31.6 nM, the IC50 [5] was < 31.6 nM and the IC50 [6] was < 31.6 nM. It also gave a viability, T/C [7] of 110%, a viability, T/C [8] of 113% and a viability, T/C [9] of 106%. It also gave a viability, T/C [10] of 108%, a viability, T/C [11] of 92.3% and a viability, T/C [12] of 98.5%. It also gave a viability, T/C [13] of 92.3%, a viability, T/C [14] of 94.8% and a viability, T/C [15] of 86.8%. It also gave a viability, T/C [16] of 115%, a viability, T/C [17] of 90.4% and a viability, T/C [18] of 85.1%. The viability, T/C [19] was 83.6%, the viability, T/C [20] was 77.3% and the viability, T/C [21] was 66.5%. For the same compound, the viability, T/C [22] was 73.4%, the viability, T/C [23] was 68.8% and the viability, T/C [24] was 67%. For the same compound, the viability, T/C [25] was 42.1%, the viability, T/C [26] was 36% and the viability, T/C [27] was 27.9%. It also gave a viability, T/C [28] of 28.2%, a viability, T/C [29] of 31.7% and a viability, T/C [30] of 27.7%. The viability, T/C [31] was 20.3%, the viability, T/C [32] was 18.1% and the viability, T/C [33] was 19.9%. It also gave a viability, T/C [34] of 15.6%, a viability, T/C [35] of 18.4% and a viability, T/C [36] of 24.6%. The viability, T/C [37] was 17.1%, the viability, T/C [38] was 17.1% and the viability, T/C [39] was 18.7%. The viability, T/C [40] was 15.7%, the viability, T/C [41] was 18.6% and the viability, T/C [42] was 23.5%.
COc1ccc([C@@H](O)c2cc(-c3ncnc4cc(N5CCOCC5)ccc34)c(F)cc2Cl)nn1 was tested, and the viability, T/C (compound 0.0316 µM) was 90% and 106%, the viability, T/C (compound 0.1 µM) was 95.4% and 97.4% and the viability, T/C (compound 0.316 µM) was 40.8% and 95.7%. The viability, T/C (compound 1 µM) was 26.3% and 80.3%, the viability, T/C (compound 3.16 µM) was 13.1% and 37.1% and the viability, T/C (compound 10 µM) was 7.58% and 16.6%. The IC50 (curve of compound) was 258 nM and 2250 nM.
For CC1COCCN1c1cc(C2(S(C)(=N)=O)CC2)nc(-c2ccnc3[nH]ccc23)n1 (configuration not stated) + CN1CCN(c2cc(C(=O)Nc3cc4cc(-c5cnn(C)c5)ccc4cn3)ccn2)CC1, the IC50 [1] was 1750 nM, the IC50 [2] was 115 nM and the IC50 [3] was < 31.6 nM. The IC50 [4] was < 31.6 nM, the IC50 [5] was < 31.6 nM and the IC50 [6] was < 31.6 nM. The viability, T/C [7] was 47.2%, the viability, T/C [8] was 74.3% and the viability, T/C [9] was 67.3%. It also gave a viability, T/C [10] of 89.2%, a viability, T/C [11] of 29.4% and a viability, T/C [12] of 26.9%. It also gave a viability, T/C [13] of 61.5%, a viability, T/C [14] of 53.8% and a viability, T/C [15] of 22%. For the same compound, the viability, T/C [16] was 30.5%, the viability, T/C [17] was 15.8% and the viability, T/C [18] was 15.1%. For the same compound, the viability, T/C [19] was 10.6%, the viability, T/C [20] was 9.28% and the viability, T/C [21] was 9%. It also gave a viability, T/C [22] of 7.71%, a viability, T/C [23] of 7.38% and a viability, T/C [24] of 4.64%. It also gave a viability, T/C [25] of 0.24%, a viability, T/C [26] of 0.3% and a viability, T/C [27] of 0.2%. The viability, T/C [28] was 0.19%, the viability, T/C [29] was 0.18% and the viability, T/C [30] was 0.82%. It also gave a viability, T/C [31] of 0.19%, a viability, T/C [32] of 1.51% and a viability, T/C [33] of 1.3%. For the same compound, the viability, T/C [34] was 0.18%, the viability, T/C [35] was 0.26% and the viability, T/C [36] was 1.69%. It also gave a viability, T/C [37] of 0.23%, a viability, T/C [38] of 0.28% and a viability, T/C [39] of 1.49%. The viability, T/C [40] was 0.34%, the viability, T/C [41] was 0.56% and the viability, T/C [42] was 1.29%.
CCCS(=O)(=O)Nc1ccc(F)c(C(=O)c2c[nH]c3ncc(-c4ccc(Cl)cc4)cc23)c1F was tested, and the viability, T/C (compound 0.0316 µM) was 91.7% and 104%, the viability, T/C (compound 0.1 µM) was 108% and 107% and the viability, T/C (compound 0.316 µM) was 103% and 113%. The viability, T/C (compound 1 µM) was 132% and 115%, the viability, T/C (compound 3.16 µM) was 120% and 118% and the viability, T/C (compound 10 µM) was 71.7% and 76.3%. The IC50 (curve of compound) was > 10000 nM.
In the case of C=CC(=O)N1CCN(c2nc(=O)n(-c3c(C)ccnc3C(C)C)c3nc(-c4c(O)cccc4F)c(F)cc23)C(C)C1 (configuration not stated), the viability, T/C (compound 0.0316 µM) is reported as 91% and 86.6%, the viability, T/C (compound 0.1 µM) is reported as 111% and 92.8% and the viability, T/C (compound 0.316 µM) is reported as 101% and 92.3%. The viability, T/C (compound 1 µM) was 110% and 103%, the viability, T/C (compound 3.16 µM) was 106% and 121% and the viability, T/C (compound 10 µM) was 103% and 74.9%. The IC50 (curve of compound) was > 10000 nM.
With O=C(c1cc(Cc2n[nH]c(=O)c3ccccc23)ccc1F)N1CCN(C(=O)C2CC2)CC1 the viability, T/C (compound 0.0316 µM) was 76.1% and 102%, the viability, T/C (compound 0.1 µM) was 97.4% and 102% and the viability, T/C (compound 0.316 µM) was 93.7% and 95.2%. For the same compound, the viability, T/C (compound 1 µM) was 62% and 95.9%, the viability, T/C (compound 3.16 µM) was 46.3% and 107% and the viability, T/C (compound 10 µM) was 70.3% and 93.2%. For the same compound, the IC50 (curve of compound) was > 10000 nM.

From PubChem BioAssay AID2060626 (Molecular Pharmacology Branch, DTP, NCI, 2025)
